From patent publication US20220274947A1, “NOVEL HETEROARYL-TRIAZOLE COMPOUNDS AS PESTICIDES” (Bayer Aktiengesellschaft, priority 2019, published 2022)

Legend:
Assay type in all cases: in vivo
[1] = tested on: Musca domestica strain WHO—N; test: Musca domestica test (MUSCDO surface treatment & contact assay); settings: exposure 30 minutes, 24 hours after contact, read-out: efficacy (mortality); for mortality at 4 mg/m2: surface concentration 4 mg/m^2, glazed tile; for mortality at 20 mg/m2: surface concentration 20 mg/m^2, glazed tile
Method in brief: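 Compound dissolved in acetone (2 mg/ml) with 2000 ppm rapeseed oil methyl ester and pipetted onto glazed tile; after acetone evaporation, adult flies exposed to dried surface for 30 minutes. Mortality (%) scored 24 hours after contact.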

Rhipicephalus microplus = test: Rhipicephalus (Boophilus) microplus dip test (BOOPMI Dip); settings: 168 h, application rate 100 ppm, engorged adult female ticks, after 7 days, read-out: activity (efficacy: 100% means all eggs are infertile)
Description: Rhipicephalus (Boophilus) Microplus—Dip Test (BOOPMI Dip)
Test Animal: cattle ticks (Rhipicephalus microplus) strain parkhurst, SP-resistant Solvent: dimethyl sulfoxide
To produce a suitable preparation of active compound, 10 mg of active compound are dissolved in 0.5 mL solvent, and the concentrate is diluted with water to the desired concentration.
This compound solution is pipetted into tubes. 8-10 engorged, adult, female cattle ticks (Rhipicephalus microplus) are placed in perforated tubes. These tubes are immersed in the aqueous compound solution until the ticks are completely moistened. After the liquid has drained off, the ticks are transferred to a filter paper in a plastic tray and stored in a climate chamber.
After 7 days egg deposition of fertile eggs is monitored. Eggs where fertility is not visible are stored in a climate chamber till hatching after about 42 days. An efficacy of 100% means all eggs are infertile; 0% means all eggs are fertile.

Rhipicephalus sanguineus = Rhipicephalus sanguineus in-vitro contact test, adult brown dog ticks (RHIPSA Cont); settings: 48 h, after 48 hours, read-out: activity (efficacy: 100% means all ticks are dead or moribund); for pest or weed control at 1 µg/cm2, 100 g/ha: application rate 1 μg/cm^2 (=100 g/ha); for pest or weed control at 5 µg/cm2, 500 g/ha: application rate 5 μg/cm^2 (=500 g/ha)
Method in brief: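 Compound in acetone (9 mg/mL stock, diluted to test concentration) is coated onto inner walls of glass tubes by rotation for 2 h at 30 rpm. Efficacy is read after 48 h: ticks are tapped down and held on a 45-50° C plate for at most 5 min, and immotile or uncoordinated ones that fail to climb away count as dead or moribund.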

[2] = tested on: Aedes aegypti strain MONHEIM; test: Aedes aegypti test (AEDSAE surface treatment & contact assay); settings: exposure 30 minutes, 24 hours after contact, read-out: efficacy (mortality); for mortality at 4 mg/m2: surface concentration 4 mg/m^2, glazed tile; for mortality at 20 mg/m2: surface concentration 20 mg/m^2, glazed tile
Method in brief: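 Compound dissolved in acetone (2 mg/ml) with 2000 ppm rapeseed oil methyl ester, pipetted onto glazed tile and dried. Adult mosquitoes exposed on the surface for 30 min; percent mortality scored 24 h after contact.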

Myzus persicae = Myzus persicae oral test; settings: 120 h, read-out: activity (mortality)
Method in brief: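 Percent mortality was recorded at day 5, where 0% means no aphids killed. Compound prepared from an acetone concentrate diluted in water and combined with IPL41 medium containing sugar was offered to mixed-stage green peach aphids, which sucked it through a parafilm seal.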

[3] = tested on: Culex quinquefasciatus strain P00; test: Culex quinquefasciatus test (CULXFA surface treatment & contact assay); settings: exposure 30 minutes, 24 hours after contact, read-out: efficacy (mortality); for mortality at 20 mg/m2: surface concentration 20 mg/m^2, glazed tile; for mortality at 4 mg/m2: surface concentration 4 mg/m^2, glazed tile
Method in brief: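 Test compound in acetone (2 mg/ml) with 2000 ppm RME pipetted onto glazed tile; after acetone evaporation, adult strain P00 mosquitoes exposed to dried surface for 30 min. Mortality (%) scored 24 h after contact; 100% = all dead, 0% = none dead.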

Ctenocephalides felis = Ctenocephalides felis oral test (CTECFE Oral); settings: 48 h, read-out: activity (mortality)
Method in brief: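 About 20 unfed adult cat fleas fed through parafilm on cattle blood containing compound (DMSO concentrate diluted in blood to the desired concentration). Blood held at 37 °C, fleas at room temperature. Mortality (%) scored after 2 days.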

[4] = tested on: Anopheles funestus strain FUMOZ-R; test: Anopheles funestus test (ANPHFU surface treatment & contact assay); settings: exposure 30 minutes, 24 hours after contact, read-out: efficacy (mortality); for mortality at 4 mg/m2: surface concentration 4 mg/m^2, glazed tile; for mortality at 20 mg/m2: surface concentration 20 mg/m^2, glazed tile
Method in brief: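 Adult FUMOZ-R mosquitoes were exposed 30 min to glazed tiles treated with compound in acetone plus 2000 ppm rapeseed oil methyl ester, after solvent evaporation. Percent mortality was scored 24 h after contact.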

SMILES	mortality at 4 mg/m2 [1] [%]	mortality at 20 mg/m2 [1] [%]	pest or weed control at 100 ppm (Rhipicephalus microplus) [%]	pest or weed control at 1 µg/cm2, 100 g/ha (Rhipicephalus sanguineus) [%]	pest or weed control at 5 µg/cm2, 500 g/ha (Rhipicephalus sanguineus) [%]	mortality at 4 mg/m2 [2] [%]	mortality at 20 mg/m2 [2] [%]	mortality at 4 ppm (Myzus persicae) [%]	mortality at 20 mg/m2 [3] [%]	mortality at 100 ppm (Ctenocephalides felis) [%]	mortality at 4 mg/m2 [4] [%]	mortality at 20 mg/m2 [4] [%]	mortality at 4 mg/m2 [3] [%]	mortality at 0.8 ppm (Myzus persicae) [%]
C[C@H](NC(=O)c1cc(Cl)nc(C(F)(F)F)c1)c1ncnn1-c1ccc(C#N)cn1 [II-5]	80 to 100	80 to 100	100	100	100	80 to 100	80 to 100	100	80 to 100	90	80 to 100	80 to 100	–	–
C[C@H](NC(=O)c1cc(C(F)(F)F)cc(C(F)(F)F)c1)c1ncnn1-c1ccc(C(=O)N(C)C2CC2)cn1 [II-38, 6-(5-{(1S)-1-[3,5-bis(trifluoromethyl)benzamido]ethyl}-1H-1,2,4-triazol-1-yl)-N-cyclopropyl-N-methylnicotinamide]	–	–	80	100	100	80 to 100	80 to 100	100	80 to 100	–	–	80 to 100	–	–
C[C@H](NC(=O)c1cc(Cl)cc(C(F)(F)F)c1)c1ncnn1-c1cc(-n2cncn2)ccn1 [II-43]	–	80 to 100	100	100	100	80 to 100	80 to 100	–	–	–	–	80 to 100	80 to 100	–
Cc1nc([C@H](C)NC(=O)c2cc(Br)cc(OC(F)(F)F)c2)n(-c2ccc(C#N)cn2)n1 [II-47]	80 to 100	80 to 100	80	100	100	80 to 100	80 to 100	100	–	100	–	80 to 100	–	100
Cc1nc([C@H](C)NC(=O)c2cc(Cl)cc(Br)c2)n(-c2ccc(C#N)cn2)n1 [II-50]	80 to 100	80 to 100	100	100	100	80 to 100	80 to 100	100	–	100	80 to 100	–	80 to 100	100
Cc1nc([C@H](C)NC(=O)c2cncc(C(F)(F)F)c2)n(-c2ccc(C#N)cn2)n1 [II-63]	–	80 to 100	100	100	100	80 to 100	80 to 100	100	80 to 100	100	–	–	–	–
CCN(C)C(=O)c1ccc(-n2nc(C)nc2[C@H](C)NC(=O)c2cc(C(F)(F)F)cc(C(F)(F)F)c2)nc1 [II-97]	80 to 100	80 to 100	100	100	100	–	80 to 100	100	–	100	–	–	–	–
